Source: patent US7399493B2, “Anti-irritant botanicals” (priority 2004, dated 2008)

How the values were obtained:
[1] = system: irritating action of alpha-hydroxy acids (lactic and glycolic acids); details: Rosmarinic acid 5%; cited from earlier work
HaCat keratinocytes = assay: Retinoid-stimulated autocrine (RSA) clonal growth assay; format: cell-based, human; details: 10 μM, 48 hours after treatment, relative to untreated control
Experimental: Since retinoids irritate skin leading to epidermal hyperplasia, it is the inventors idea that plant extracts that act as inhibitors of retinoid -stimulated autocrine growth are themselves anti-irritants. This hypothesis was tested using an in vitro keratinocyte culture model.
An immortalized line of human epidermal kertatinocytes, HaCat keratinocytes, can be cultured in a serum-free culture medium. Sterile Petri dishes (35 mm^2) are seeded at 5,000 cells per cm^2 and placed in a humidified CO2 incubator at 37° C. for 3-5 days or until the culture reaches about 30% confluent monolayer growth. The dishes are washed once with ice-cold serum-free media lacking EGF and insulin, and refed 2.5 ml of serum-free culture medium containing 5 ug/ml insulin and retinyl acetate (RA, 3×10^−8 M).—Duplicate control dishes are fixed and stained with 0.2% crystal violet to record the—amount of clonal growth prior to refeeding with fresh RA-containing medium. Test—dishes refed RA and insulin are split into three groups in duplicate. Group A is refed on the RA plus insulin medium. Group B is refed RA plus insulin medium and a TRK inhibitor (PD 15356), and Group C is refed medium containing RA plus insulin and from 0.1 to 5% of a hydroalcoholic botanical extract. All dishes are adjusted to have the same final concentration of alcohol (1%). All dishes are placed back in the incubator for 2 and 4 days. […]

| Compound | reduction of the irritating action of alpha-hydroxy acids [1] | inhibition of RSA clonal growth (HaCat keratinocytes) |
| --- | --- | --- |
| O=C(/C=C/c1ccc(O)c(O)c1)O[C@H](Cc1ccc(O)c(O)c1)C(=O)O [Rosmarinic acid] | reduce by more than three-fold |  |
| O.O.O=c1c(O)c(-c2ccc(O)c(O)c2)oc2cc(O)cc(O)c12 [quercetin dihydrate] |  | completely inhibited |
